Measurements taken from US5466671A, “Apidaecin-type peptide antibiotics with improved activities and/or different antibacterial spectrum” (priority 1994, dated 1995).
Residues, ends and D or L forms follow the SMILES beside them.

What was measured:
gram negative bacteria = settings: many gram negative bacteria; cited from earlier work
gram positives = settings: cited from earlier work
Francisella tularensis = type: cell-based; settings: agar plate, 50 nanomoles/well, 3 mm wells
[1] = test system: Escherichia coli (ATCC11775); experiment: Inhibition zone assay (agar plate); type: cell-based; settings: for inhibition zone diameter (number of plus signs): agar plate, 50 nanomoles/well, 3 mm wells
Enterobacter cloacae = experiment: Inhibition zone assay (agar plate); type: cell-based; settings: for inhibition zone diameter (number of plus signs): agar plate, 50 nanomoles/well, 3 mm wells
M. morganii = experiment: Minimal inhibitory concentration (liquid culture); settings: inoculum 400 CFU/ml; a-b = highest concentration with growth - lowest without growth
Rhizobium meliloti = experiment: Inhibition zone assay (agar plate); type: cell-based; settings: 50 nanomoles/well, 3 mm wells
[2] = test system: Agrobacterium tumefaciens; experiment: Inhibition zone assay (agar plate); type: cell-based; settings: for inhibition zone diameter (number of plus signs): agar plate, 50 nanomoles/well, 3 mm wells
E. coli Apid^R = experiment: Minimal inhibitory concentration (liquid culture); type: cell-based; settings: inoculum 1000 CFU/ml; a-b = highest concentration with growth - lowest without growth
Source text: For details see `Experimental Procedures`.

E. coli 23802 = experiment: Minimal inhibitory concentration (liquid culture); settings: inoculum 5000 CFU/ml; a-b = highest concentration with growth - lowest without growth
E. coli 11775 = experiment: Minimal inhibitory concentration (liquid culture); settings: a-b = highest concentration with growth - lowest without growth
A. calcoaceticus = experiment: Minimal inhibitory concentration (liquid culture); settings: inoculum 16 × 10^6 CFU/ml; a-b = highest concentration with growth - lowest without growth
Yersinia enterocolitica = experiment: Inhibition zone assay (agar plate); type: cell-based; settings: 50 nanomoles/well, 3 mm wells
Erwinia amylovora = experiment: Inhibition zone assay (agar plate); type: cell-based; settings: for inhibition zone diameter (number of plus signs): agar plate, 50 nanomoles/well, 3 mm wells
Pseudomonas syringae = experiment: Inhibition zone assay (agar plate); type: cell-based; settings: agar plate, 50 nanomoles/well, 3 mm wells
Klebsiella pneumoniae = experiment: Inhibition zone assay (agar plate); type: cell-based; settings: for inhibition zone diameter (number of plus signs): agar plate, 50 nanomoles/well, 3 mm wells
Morganella morganii = experiment: Inhibition zone assay (agar plate); type: cell-based; settings: 50 nanomoles/well, 3 mm wells
S. typhimurium = experiment: Minimal inhibitory concentration (liquid culture); settings: inoculum 8 × 10^6 CFU/ml; a-b = highest concentration with growth - lowest without growth
Salmonella typhimurium = experiment: Inhibition zone assay (agar plate); type: cell-based; settings: for inhibition zone diameter (number of plus signs): agar plate, 50 nanomoles/well, 3 mm wells
E. coli 25922 = experiment: Minimal inhibitory concentration (liquid culture); settings: inoculum 1100 CFU/ml; a-b = highest concentration with growth - lowest without growth
[3] = test system: Acinetobacter calcoaceticus; experiment: Inhibition zone assay (agar plate); type: cell-based; settings: for inhibition zone diameter (number of plus signs): agar plate, 50 nanomoles/well, 3 mm wells
Haemophilus influenzae = experiment: Inhibition zone assay (agar plate); type: cell-based; settings: 50 nanomoles/well, 3 mm wells
Y. enterocolitica = experiment: Minimal inhibitory concentration (liquid culture); settings: inoculum 5000 CFU/ml; a-b = highest concentration with growth - lowest without growth
Salmonella typhi = type: cell-based; settings: for inhibition zone diameter (number of plus signs): agar plate, 50 nanomoles/well, 3 mm wells
[4] = test system: Escherichia coli (11775 Apid R); type: cell-based; settings: agar plate, 50 nanomoles/well, 3 mm wells
Campylobacter jejuni = experiment: Inhibition zone assay (agar plate); type: cell-based; settings: 50 nanomoles/well, 3 mm wells
Legionella pneumophila = type: cell-based; settings: agar plate, 50 nanomoles/well, 3 mm wells
Shigella dysenteriae = type: cell-based
Escherichia coli (K514) = type: cell-based; settings: agar plate, 50 nanomoles/well, 3 mm wells
strains tested = type: cell-based; settings: agar plate
E. coli D22 = type: cell-based; settings: 50 nanomoles per well (3 mm diameter)
[5] = 50 nanomoles per well (3 mm diameter)

Row | Compound | inhibition zone diameter (number of plus signs) [1] | inhibition zone diameter (number of plus signs) (Enterobacter cloacae) | minimal inhibitory concentration (MIC) (M. morganii) [µg/mL] | inhibition zone diameter (number of plus signs) (Rhizobium meliloti) | inhibition zone diameter (number of plus signs) [2] | minimal inhibitory concentration (MIC) (E. coli Apid^R) [µg/mL] | minimal inhibitory concentration (MIC) (E. coli 23802) [µg/mL] | minimal inhibitory concentration (MIC) (E. coli 11775; inoculum 16 × 10^6 CFU/ml) [µg/mL] | minimal inhibitory concentration (MIC) (E. coli 11775; inoculum 1200 CFU/ml) [µg/mL] | minimal inhibitory concentration (MIC) (A. calcoaceticus) [µg/mL] | inhibition zone diameter (number of plus signs) (Erwinia amylovora) | inhibition zone diameter (number of plus signs) (Pseudomonas syringae) | inhibition zone diameter (number of plus signs) (Klebsiella pneumoniae) | inhibition zone diameter (number of plus signs) (Morganella morganii) | minimal inhibitory concentration (MIC) (S. typhimurium) [µg/mL] | inhibition zone diameter (number of plus signs) (Salmonella typhimurium) | minimal inhibitory concentration (MIC) (E. coli 25922) [µg/mL] | inhibition zone diameter (number of plus signs) [3] | inhibition zone diameter (number of plus signs) (Haemophilus influenzae) | antibacterial activity, overall (inhibition zone) (strains tested) | further results
1 | CC[C@H](C)[C@H](NC(=O)[C@H](Cc1ccc(O)cc1)NC(=O)[C@@H](NC(=O)[C@@H]1CCCN1C(=O)[C@H](CCCNC(=N)N)NC(=O)[C@H](CC(N)=O)NC(=O)[C@H](CC(N)=O)NC(=O)CN)C(C)C)C(=O)N1CCC[C@H]1C(=O)N[C@@H](CCC(N)=O)C(=O)N1CCC[C@H]1C(=O)N[C@@H](CCCNC(=N)N)C(=O)N1CCC[C@H]1C(=O)N1CCC[C@H]1C(=O)N[C@@H](Cc1cnc[nH]1)C(=O)N1CCC[C@H]1C(=O)N[C@@H](CCCNC(=N)N)C(=O)N[C@@H](CC(C)C)C(=O)O [Apidaecin] (H-GNNRPVYIPQPRPPHPRL-OH) | – | – | – | – | – | – | – | – | – | – | – | – | – | – | – | – | – | – | – | – | dose inhibiting viability (gram negative bacteria): nanomolar doses; effect on gram positives (gram positives): unaffected
2 | CC[C@H](C)[C@H](NC(=O)[C@@H]1CCCN1C(=O)[C@H](C)NC(=O)[C@@H]1CCCN1C(=O)[C@H](CCCNC(=N)N)NC(=O)[C@@H]1CCCN1C(=O)[C@H](CCCNC(=N)N)NC(=O)[C@@H](N)CC(N)=O)C(=O)N[C@@H](CCC(N)=O)C(=O)N1CCC[C@H]1C(=O)N[C@@H](CCCNC(=N)N)C(=O)N1CCC[C@H]1C(=O)N1CCC[C@H]1C(=O)N[C@@H](Cc1c[nH]cn1)C(=O)N1CCC[C@H]1C(=O)N[C@@H](CCCNC(=N)N)C(=O)N[C@@H](CC(C)C)C(=O)O [Cd 1-, Asn--Arg--Pro--Arg--Pro--Ala--Pro--Ile--Gln--Pro--Arg--Pro--Pro--His--Pro--Arg--Leu] (H-NRPRPAPIQPRPPHPRL-OH) | +++ ((+++) 10-14 mm) | +++ ((+++) 10-14 mm) | 20 to 40 | ++++ ((++++) 15-19 mm) | +++ ((+++) 10-14 mm) | > 40 | 5 to 10 | 0.5 to 1 | 0.5 to 1 | > 20 | ++++ ((++++) 15-19 mm) | ++++ ((++++) 15-19 mm) | ++ ((++) 7-9 mm) | ++ ((++) 7-9 mm) | 0.5 to 1 | +++ ((+++) 10-14 mm) | 0.5 to 1 | ++ ((++) 7-9 mm) | +++ ((+++) 10-14 mm) | – | inhibition zone diameter (number of plus signs) (Francisella tularensis): ++ ((++) 7-9 mm); inhibition zone diameter (number of plus signs) (Yersinia enterocolitica): ++ ((++) 7-9 mm); minimal inhibitory concentration (MIC) (Y. enterocolitica): 5 to 10 µg/mL; inhibition zone diameter (number of plus signs) (Salmonella typhi): ++ ((++) 7-9 mm); inhibition zone diameter (number of plus signs) [4]: ++ ((++) 7-9 mm)
3 | CC[C@H](C)[C@H](NC(=O)[C@@H]1CCCN1C(=O)[C@H](C)NC(=O)[C@@H]1CCCN1C(=O)[C@H](CCCNC(=N)N)NC(=O)[C@@H]1CCCN1C(=O)[C@H](CCCCN)NC(=O)[C@@H](N)CC(N)=O)C(=O)N[C@@H](CCCCN)C(=O)N1CCC[C@H]1C(=O)N[C@@H](CCCNC(=N)N)C(=O)N1CCC[C@H]1C(=O)N1CCC[C@H]1C(=O)N[C@@H](Cc1c[nH]cn1)C(=O)N1CCC[C@H]1C(=O)N[C@@H](CCCNC(=N)N)C(=O)N[C@@H](CC(C)C)C(=O)O [Cd 2-, Asn--Lys--Pro--Arg--Pro--Ala--Pro--Ile--Lys--Pro--Arg--Pro--Pro--His--Pro--Arg--Leu] (H-NKPRPAPIKPRPPHPRL-OH) | +++ ((+++) 10-14 mm) | +++ ((+++) 10-14 mm) | 1 to 5 | +++ ((+++) 10-14 mm) | ++++ ((++++) 15-19 mm) | 5 to 10 | 10 to 20 | 0.5 to 1 | 0.5 to 1 | 10 to 20 | +++ ((+++) 10-14 mm) | +++ ((+++) 10-14 mm) | ++ ((++) 7-9 mm) | ++ ((++) 7-9 mm) | 1 to 5 | + ((+) 5-6 mm) | 0.5 to 1 | + ((+) 5-6 mm) | ++ ((++) 7-9 mm) | – | inhibition zone diameter (number of plus signs) (Campylobacter jejuni): +++ ((+++) 10-14 mm); inhibition zone diameter (number of plus signs) (Legionella pneumophila): ++ ((++) 7-9 mm); inhibition zone diameter (number of plus signs) (Shigella dysenteriae; agar plate, 50 nanomoles/well, 3 mm wells): ++ ((++) 7-9 mm); inhibition zone diameter (number of plus signs) (Escherichia coli (K514)): ++ ((++) 7-9 mm); minimal inhibitory concentration (MIC) (Y. enterocolitica): > 40 µg/mL; inhibition zone diameter (number of plus signs) (Salmonella typhi): + ((+) 5-6 mm); inhibition zone diameter (number of plus signs) [4]: ++ ((++) 7-9 mm)
4 | CC(C)C[C@H](NC(=O)[C@H](CCCNC(=N)N)NC(=O)[C@@H]1CCCN1C(=O)[C@H](Cc1c[nH]cn1)NC(=O)[C@@H]1CCCN1C(=O)[C@@H](NC(=O)[C@H](CCCNC(=N)N)NC(=O)[C@@H]1CCCN1C(=O)[C@@H]1CCCN1C(=O)[C@@H](NC(=O)[C@H](CCC(N)=O)NC(=O)[C@H](CCC(N)=O)NC(=O)[C@@H]1CCCN1C(=O)[C@H](CCCNC(=N)N)NC(=O)[C@@H]1CCCN1C(=O)[C@H](CCCCN)NC(=O)[C@@H](N)Cc1ccccc1)C(C)C)[C@@H](C)O)C(=O)O [HoFT, F K P R P Q Q V P P R T P H P R L] (H-FKPRPQQVPPRTPHPRL-OH) | – | – | – | – | – | – | – | – | – | – | – | – | – | – | – | – | – | – | – | lack detectable antibacterial activity | –
5 | CC(C)C[C@H](NC(=O)[C@H](CCCNC(=N)N)NC(=O)[C@@H]1CCCN1C(=O)[C@H](Cc1c[nH]cn1)NC(=O)[C@@H]1CCCN1C(=O)[C@@H](NC(=O)[C@H](CCCNC(=N)N)NC(=O)[C@@H]1CCCN1C(=O)[C@@H]1CCCN1C(=O)[C@@H](NC(=O)[C@H](CCC(N)=O)NC(=O)[C@H](CCC(N)=O)NC(=O)[C@@H]1CCCN1C(=O)[C@H](CCCNC(=N)N)NC(=O)[C@@H]1CCCN1C(=O)[C@H](CCCCN)NC(=O)CN)C(C)C)[C@@H](C)O)C(=O)O [HoGT, G K P R P Q Q V P P R T P H P R L] (H-GKPRPQQVPPRTPHPRL-OH) | – | – | – | – | – | – | – | – | – | – | – | – | – | – | – | – | – | – | – | lack detectable antibacterial activity | –
6 | CC[C@H](C)[C@H](NC(=O)[C@@H]1CCCN1C(=O)[C@@H](NC(=O)[C@H](CCC(N)=O)NC(=O)[C@@H]1CCCN1C(=O)[C@H](CO)NC(=O)[C@@H]1CCCN1C(=O)[C@H](CCCNC(=N)N)NC(=O)[C@@H](N)CO)C(C)C)C(=O)N[C@@H](CCCNC(=N)N)C(=O)N1CCC[C@H]1C(=O)N[C@@H](CO)C(=O)N[C@@H](CCC(N)=O)C(=O)N1CCC[C@H]1C(=O)N[C@@H](CCCNC(=N)N)C(=O)N1CCC[C@H]1C(=O)N[C@@H](CCC(N)=O)C(=O)N1CCC[C@H]1C(=O)N[C@@H](Cc1ccccc1)C(=O)N[C@@H](CCCCN)C(=O)N1CCC[C@H]1C(=O)N[C@@H](CCCNC(=N)N)C(=O)N1CCC[C@H]1C(=O)N[C@@H](CCC(N)=O)C(=O)N[C@@H](CCC(N)=O)C(=O)N[C@H](C(=O)N1CCC[C@H]1C(=O)N1CCC[C@H]1C(=O)N[C@@H](CCCNC(=N)N)C(=O)N[C@H](C(=O)N1CCC[C@H]1C(=O)N[C@@H](Cc1c[nH]cn1)C(=O)N1CCC[C@H]1C(=O)N[C@@H](CCCNC(=N)N)C(=O)N[C@@H](CC(C)C)C(=O)O)[C@@H](C)O)C(C)C [PAB-FT 1-35, SRPSPQVPIRPSQPRPQPFKPRPQQVPPRTPHPRL] (H-SRPSPQVPIRPSQPRPQPFKPRPQQVPPRTPHPRL-OH) | – | – | – | – | – | – | – | – | – | – | – | – | – | – | – | – | – | – | – | has antibacterial activity | Inhibition zones: in mm diameter [1, 5]: 10 mm; Inhibition zones: in mm diameter (Enterobacter cloacae; [5]): 11 mm; Inhibition zones: in mm diameter [2, 5]: 5 mm; Inhibition zones: in mm diameter (Shigella dysenteriae; [5]): 12 mm; Inhibition zones: in mm diameter (Erwinia amylovora; [5]): 5 mm; Inhibition zones: in mm diameter (E. coli D22): 14 mm; Inhibition zones: in mm diameter (Klebsiella pneumoniae; [5]): 9 mm; Inhibition zones: in mm diameter (Salmonella typhimurium; [5]): 7 mm; Inhibition zones: in mm diameter [3, 5]: 7 mm; Inhibition zones: in mm diameter (Salmonella typhi; [5]): 14 mm
